Laboratory results published in US20110207689A1, “THE TREATMENT OF HEARING LOSS” (Auckland UniServices Limited, priority 2008, published 2011).
Where a name gives a salt, the structure may show the parent alone.

Experiments:
[1] = system: rats exposed to broad band noise for 24 hours at 110 dBSPL; assay: ABR after broad band noise, adenosine receptor agonists delivered onto the round window membrane (Experiment 3); assay type: in vivo, Wistar rats; conditions: for post-treatment ABR thresholds for clicks and pure tones: 48 hours after administration to the RWM, CGS-21680 200 μM; for post-treatment ABR thresholds for clicks and pure tones / ABR threshold recovery for clicks: adenosine 10 mM; for post-treatment ABR thresholds for clicks and pure tones / ABR threshold recovery for pure tones (up to) / ABR threshold recovery for clicks: CCPA 1 mM; for ABR threshold recovery for pure tones (up to) / ABR threshold recovery for clicks: single dose onto RWM 6 hours after noise, ABR 48 hours after treatment; for ABR threshold recovery for pure tones (up to): adenosine 10 mM (16 kHz)
Experimental: ABRs were measured in response to auditory clicks (a) and pure tones (b-e) before noise exposure (baseline), 30 minutes after noise exposure (pre-treatment) and 48 hours after administration of adenosine receptor agonists (post-treatment). All drugs were delivered onto the cochlear round window membrane (f) Threshold recovery is defined as ABR post-treatment minus ABR pre-treatment. Data are expressed as means±SEM (n=8). *p<0.05; **p<0.01; ***p<0.001; one way ANOVA with Tukey's multiple comparison test. AP, artificial perilymph (control); adenosine (10 mM), non-selective adenosine receptor agonist; CCPA (1 mM), selective A1 adenosine receptor agonist; CGS-21680 (0.2 mM), selective A2A receptor agonist.
Rats were exposed to a broadband noise presented for 24 hours at 90, 100, or 110 dBSPL. Noise exposures were carried out in a custom-built acoustic chamber (Shelburg Acoustics, Sydney, Australia) with internal speakers and external controls (sound generator and frequency selector). The sound levels in the cage were measured using a calibrated Rion NL-49 sound level meter to ensure minimal deviations of sound intensity. The animals had free access to food and water during the exposure.
Auditory thresholds in noise-exposed animals were measured using auditory brainstem responses (ABR), which represent the sound evoked potentials from the auditory nerve and brainstem auditory nuclei. ABR measurements were recorded at least 24 hours prior to noise exposure (baseline) and then 30 min after noise exposure (pre-treatment). Adenosine receptor agonists or vehicle control were then delivered to the cochlear round window (around 6 hours post-noise) and ABR measurement was then repeated 48 hours after drug administration (post-treatment). ABR measurements were performed in a sound attenuator chamber (Shelburg Acoustics, Sydney, Australia). The rats were anesthetized with ketamine (75 mg/kg) and xylazine (10 mg/kg) and their body temperature was maintained at 38° C. with a heating pad as described. ABRs were obtained by placing fine platinum electrodes subdermally at the mastoid region of the ear of interest (active electrode), scalp vertex (reference) and mastoid region of the opposite ear (ground electrode). A series of auditory clicks or pure tones (4-28 kHz) presented at varying intensity and thresholds generated electrical activity reflecting differing levels of auditory processing. The sound threshold of the ABR complex (waves I-IV) were determined by progressively attenuating the sound intensity until the waveform was no longer observed. The acoustic stimuli for ABR were produced, and the responses, recorded, using a Tucker-Davis Technologies auditory physiology workstation (Alachua, Fla., USA) controlled by computer-based digital signal processing package and software (BioSig, Alachua, Fla., USA). ABR potentials were evoked with digitally produced 5 ms tone pips (0.5 ms rise-fall time) at frequencies between 4 and 28 kHz in half-octave steps. Sound pressure level (SPL) was raised in 5 dB steps starting from 10 dB below threshold level to 90 dB SPL. Responses were averaged at each sound level (1024 repeats with stimulus polarity alternated), and response waveforms were discarded when peak-to-peak amplitude exceeded 15 μV (artefact reject). The ABR threshold was defined as the lowest intensity (to the nearest 5 dB) at which a response could be visually detected above the noise floor. The animals were euthanised after hearing assessment and the cochleae collected for immunohistochemical assessment of free radical damage.
Six hours after exposure to broad band noise (110 dBSPL for 24 hours), adenosine receptor agonists were delivered to the round window membrane (RWM) in the left cochlea, whilst the contralateral ear served as untreated control. […]

[2] = system: inner hair cell receptor potential; assay: Summating potential (SP) thresholds during cochlear perfusion, ambient noise levels; assay type: in vivo, Wistar rats; conditions: for effect on SP thresholds: RWM perfusion 90 minutes, adenosine 10 mM, CCPA 1 mM, rats at ambient noise
Experimental: SP thresholds, representing the inner hair cell receptor potential, were measured at frequencies ranging from 4-26 kHz prior to perfusion of artificial perilymph (AP; baseline), after AP perfusion and after perfusion with adenosine receptor agonists adenosine and CCPA. Data presented as mean±SEM (n=8). *p<0.05 **p<0.01, one way ANOVA with Tukey's multiple comparison test. AP, artificial perilymph (control); adenosine (10 mM), non-selective adenosine receptor agonist; CCPA (1 mM), selective A1 adenosine receptor agonist; CGS-21680 (0.2 mM), selective A2A receptor agonist; SCH-58261, selective A2A receptor antagonist.
(§1) As a foundation for the noise studies and to determine the general effect of selective adenosine receptor agonists on the cochlea, auditory function was first evaluated in control animals using the summating potential (SP; measure of the inner hair cell receptor potential) and the compound action potential (CAP; measure of the neural afferent output). This was undertaken to determine the background influence of adenosine receptor activation in the normal cochlea as a platform for the studies in noise-exposed animals.
Animals were anaesthetized (sodium pentobarbital; 60 mg/kg i.p.) and placed on a thermostatically regulated blanket connected to a remote homeothermal control unit (Harvard Apparatus, Holliston, Mass., USA) to maintain stable body temperature (37.5° C.) via a rectal thermocouple probe (Harvard Apparatus). The head of the animal was placed on a heated (38° C. surface temperature) stereotaxic head-holder, connected to a heat block temperature controller (Bio-Medical Engineering Services, University of Auckland, New Zealand). The animals were artificially ventilated and the auditory bulla was exposed using a ventrolateral approach. The perfusion line was inserted close to the round window membrane (RWM). The RWM was perfused with test solutions containing A1, or A2A adenosine receptor agonists at […] using a Harvard Apparatus Series PHD 22/2000 syringe pump. Adenosine receptor agonists adenosine (10 mM), CCPA (1 mM), CGS-21680 (200 μM), alone or in combination with adenosine receptor antagonist SCH-58261 (200 μM), were perfused for 90 minutes. Sound-evoked cochlear responses (CAP and SP) to pure tone stimuli (4-28 kHz) were recorded from a silver wire electrode placed onto the cochlear round window. These responses were measured using a Tucker-Davis System II for the presentation of tone stimuli and acquisition of the electrical potentials via a Grass P16 Pre-amplifier.

[3] = system: nitrotyrosine immunoreactivity in the noise-exposed cochlea; assay: Nitrotyrosine immunohistochemistry, semi-quantitative, noise-exposed cochleae treated topically (Experiment 3); assay type: in vivo, Wistar rats; conditions: middle turn, adenosine 10 mM or CCPA 1 mM onto RWM, p<0.01
Source text: No immunostaining was detected when the nitrotyrosine antibody was omitted. (B). Semi-quantitative analysis of nitrotyrosine immunoreactivity. Abbreviations: cc, Claudius cells; dc, Deiters' cells; hc, Hensen's cells; idc, interdental cells; is, inner sulcus cells; ihc, inner hair cells; ohc, outer hair cells; opc, outer pillar cells. Scale bars: 50 μm. Data are expressed as means±SEM (n=4 animals per group). **p<0.01; ***p<0.001; one way ANOVA with Tukey's multiple comparison test.
Nitrotyrosine formation in the noise-exposed cochlea was assessed by immunohistochemistry. […] Immunoperoxidase reaction was detected using a secondary biotin-conjugated goat anti-rabbit IgG, followed by reaction visualisation using an avidin-biotin-peroxidase complex (ABC kit, Vector Laboratories) and diaminobenzidine (DAB kit, Vector). […] Images were analyzed using identical acquisition parameters and immunolabeling was semi-quantified using ImageJ software (v.1.38x, NIH, USA). […] Regions of interest were selected and their immunostaining intensity histograms obtained and expressed as mean pixel intensity after greyscale conversion. Between 15 and 32 images of the middle cochlear turn were analyzed in each group (n=4 animals per group) in a double-blind manner.

noise-exposed cochlea = conditions: pre-treatment (prophylactic), reference [6], cited from earlier work
[4] = system: neural afferent output of the cochlea; assay: Compound action potential (CAP) thresholds during cochlear perfusion, ambient noise levels; assay type: in vivo, Wistar rats; conditions: RWM perfusion; data not shown
Source text: as §1
Animals were anaesthetized (sodium pentobarbital; 60 mg/kg i.p.) and placed on a thermostatically regulated blanket connected to a remote homeothermal control unit (Harvard Apparatus, Holliston, Mass., USA) to maintain stable body temperature (37.5° C.) via a rectal thermocouple probe (Harvard Apparatus). The head of the animal was placed on a heated (38° C. surface temperature) stereotaxic head-holder, connected to a heat block temperature controller (Bio-Medical Engineering Services, University of Auckland, New Zealand). […] Sound-evoked cochlear responses (CAP and SP) to pure tone stimuli (4-28 kHz) were recorded from a silver wire electrode placed onto the cochlear round window. These responses were measured using a Tucker-Davis System II for the presentation of tone stimuli and acquisition of the electrical potentials via a Grass P16 Pre-amplifier.

Structure (SMILES) | post-treatment ABR thresholds for clicks and pure tones [1] | ABR threshold recovery for pure tones (up to) [1] | ABR threshold recovery for clicks [1] | effect on SP thresholds [2] | reduction of nitrotyrosine mean pixel intensity compared to AP control [3] | also measured
OC[C@H]1O[C@@H](n2cnc3c(NC4CCCC4)nc(Cl)nc32)[C@H](O)[C@@H]1O [CCPA, 2-Chloro-N^6-cyclopentyladenosine] | markedly improved ABR thresholds | up to 20 dB | 20 dB | did not affect SP thresholds | 22-45% | –
CCNC(=O)[C@H]1O[C@@H](n2cnc3c(N)nc(NCCc4ccc(CCC(=O)O)cc4)nc32)[C@H](O)[C@@H]1O [CGS-21680, 2-p-(2-Carboxyethyl)phenethylamino-5′-N-ethylcarboxamidoadenosine hydrochloride hydrate] | remained unchanged | – | – | – | – | threshold recovery ([1]; CGS-21680 200 μM onto RWM 6 hours after noise, FIG. 11(f)): did not affect threshold recovery; reduction of SP thresholds ([2]; at 16 kHz, CGS-21680 200 μM RWM perfusion, p<0.01): 5 dB
C[C@H](Cc1ccccc1)Nc1ncnc2c1ncn2[C@@H]1O[C@H](CO)[C@@H](O)[C@H]1O [R-PIA, R—N6-phenylisopropyladenosine] | – | – | – | – | – | survival of the outer hair cells (noise-exposed cochlea): increased survival of the outer hair cells; preservation of auditory thresholds (noise-exposed cochlea; topical to RWM): better preservation of auditory thresholds
Nc1nc2c(cnn2CCc2ccccc2)c2nc(-c3ccco3)nn12 [SCH-58261, 7-(2-phenylethyl)-5-amino-2-(2-furyl)-pyrazolo-[4,3-e]-1,2,4-triazolo[1,5-c]pyrimidine] | – | – | – | – | – | effect on the CGS-21680 reduction of SP thresholds ([2]; SCH-58261 200 μM in combination with CGS-21680): inhibited
Nc1ncnc2c1ncn2[C@@H]1O[C@H](CO)[C@@H](O)[C@H]1O [adenosine] | markedly improved ABR thresholds | up to 19 dB | 18 dB | did not affect SP thresholds | 30-42% | effect on CAP thresholds [4]: not altered
